# Source: article PMC3399817 (PLoS ONE, 2012)
# Legend:
# Test in all cases: KINOMEscan
# Assay type in all cases: binding
# EPHB3 = target: T1, EPHB3 (Homo sapiens, UniProt P54753); conditions: EPHB3, 1 uM
# T1 construct: purchased Ambit KINOMEscan (DiscoverX)
# Method in brief: (§1)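 Substrate-binding inhibition measured with compound present at 1 μM, single concentration, to pick out affected kinases.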
# PIP5K2B = target: T2, PIP5K2B (Homo sapiens, UniProt P78356); conditions: 1 uM
# T2 construct: purchased Ambit KINOMEscan (DiscoverX)
# Method in brief: as §1
# ERN1 = target: T3, ERN1 (Homo sapiens, UniProt O75460); conditions: ERN1, 1 uM
# T3 construct: purchased Ambit KINOMEscan (DiscoverX)
# Method in brief: as §1
# MARK1 = target: T4, MARK1 (Homo sapiens, UniProt Q9P0L2); conditions: MARK1, 1 uM
# T4 construct: purchased Ambit KINOMEscan (DiscoverX)
# Method in brief: as §1
# SIK = target: T5, SIK (Homo sapiens, UniProt P57059); conditions: 1 uM
# T5 construct: purchased Ambit KINOMEscan (DiscoverX)
# Method in brief: as §1
# PIP5K1A = target: T6, PIP5K1A (Homo sapiens, UniProt Q99755); conditions: 1 uM
# T6 construct: purchased Ambit KINOMEscan (DiscoverX)
# Method in brief: as §1
# PCTK3 = target: T7, PCTK3 (Homo sapiens, UniProt Q07002); conditions: PCTK3, 1 uM
# T7 construct: purchased Ambit KINOMEscan (DiscoverX)
# Method in brief: as §1
# ADCK4 = target: T8, ADCK4 (Homo sapiens, UniProt Q96D53); conditions: ADCK4, 1 uM
# T8 construct: purchased Ambit KINOMEscan (DiscoverX)
# Method in brief: as §1
# AMPK-alpha1 = target: T9, AMPK-alpha1 (Homo sapiens, UniProt Q13131); conditions: AMPK-alpha1, 1 uM
# T9 construct: purchased Ambit KINOMEscan (DiscoverX)
# Method in brief: as §1
# PIM2 = target: T10, PIM2 (Homo sapiens, UniProt Q9P1W9); conditions: PIM2, 1 uM
# T10 construct: purchased Ambit KINOMEscan (DiscoverX)
# T10 sequence (Q9P1W9 whole entry): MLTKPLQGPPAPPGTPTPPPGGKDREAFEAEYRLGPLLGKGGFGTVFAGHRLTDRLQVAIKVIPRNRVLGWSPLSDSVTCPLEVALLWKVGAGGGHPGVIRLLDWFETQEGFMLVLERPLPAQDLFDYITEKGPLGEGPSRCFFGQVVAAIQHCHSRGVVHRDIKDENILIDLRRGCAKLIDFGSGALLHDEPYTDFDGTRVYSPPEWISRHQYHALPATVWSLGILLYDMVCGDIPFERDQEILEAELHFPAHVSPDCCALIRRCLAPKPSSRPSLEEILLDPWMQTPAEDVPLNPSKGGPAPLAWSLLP
# Method in brief: as §1
# TGFBR2 = target: T11, TGFBR2 (Homo sapiens, UniProt P37173); conditions: TGFBR2, 1 uM
# T11 construct: purchased Ambit KINOMEscan (DiscoverX)
# Method in brief: as §1
# FGFR4 = target: T12, FGFR4 (Homo sapiens, UniProt P22455); conditions: FGFR4, 1 uM
# T12 construct: purchased Ambit KINOMEscan (DiscoverX)
# Method in brief: as §1
# FER = target: T13, FER (Homo sapiens, UniProt P16591); conditions: 1 uM
# T13 construct: purchased Ambit KINOMEscan (DiscoverX)
# Method in brief: as §1
# HIPK4 = target: T14, HIPK4 (Homo sapiens, UniProt Q8NE63); conditions: HIPK4, 1 uM
# T14 construct: purchased Ambit KINOMEscan (DiscoverX)
# T14 sequence (Q8NE63 whole entry): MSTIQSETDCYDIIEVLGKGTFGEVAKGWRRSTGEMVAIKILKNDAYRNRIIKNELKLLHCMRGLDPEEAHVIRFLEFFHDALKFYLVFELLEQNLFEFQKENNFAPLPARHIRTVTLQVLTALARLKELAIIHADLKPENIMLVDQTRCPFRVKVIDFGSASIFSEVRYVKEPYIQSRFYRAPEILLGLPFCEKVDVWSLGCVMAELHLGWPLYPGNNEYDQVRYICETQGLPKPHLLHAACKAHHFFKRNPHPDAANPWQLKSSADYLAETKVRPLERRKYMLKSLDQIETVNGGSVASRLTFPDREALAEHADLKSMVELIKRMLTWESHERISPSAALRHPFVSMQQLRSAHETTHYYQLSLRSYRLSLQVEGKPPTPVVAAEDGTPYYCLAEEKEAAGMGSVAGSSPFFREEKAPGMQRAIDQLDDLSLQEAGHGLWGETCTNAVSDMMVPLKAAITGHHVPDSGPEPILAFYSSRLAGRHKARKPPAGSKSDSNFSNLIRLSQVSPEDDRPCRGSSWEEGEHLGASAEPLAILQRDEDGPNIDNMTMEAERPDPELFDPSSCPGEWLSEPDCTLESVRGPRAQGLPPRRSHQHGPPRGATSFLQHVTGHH
# Method in brief: as §1
# JNK2 = target: T15, JNK2 (Homo sapiens, UniProt P45984); conditions: JNK2, 1 uM
# T15 construct: purchased Ambit KINOMEscan (DiscoverX)
# Method in brief: as §1
# FLT3(D835H) = target: T16, FLT3(D835H) (Homo sapiens, UniProt P36888, D835H); conditions: 1 uM
# T16 construct: purchased Ambit KINOMEscan (DiscoverX)
# Method in brief: as §1
# RIPK4 = target: T17, RIPK4 (Homo sapiens, UniProt P57078); conditions: RIPK4, 1 uM
# T17 construct: purchased Ambit KINOMEscan (DiscoverX)
# Method in brief: as §1
# FLT1 = target: T18, FLT1 (Homo sapiens, UniProt P17948); conditions: FLT1, 1 uM
# T18 construct: purchased Ambit KINOMEscan (DiscoverX)
# T18 sequence (P17948 27-1338): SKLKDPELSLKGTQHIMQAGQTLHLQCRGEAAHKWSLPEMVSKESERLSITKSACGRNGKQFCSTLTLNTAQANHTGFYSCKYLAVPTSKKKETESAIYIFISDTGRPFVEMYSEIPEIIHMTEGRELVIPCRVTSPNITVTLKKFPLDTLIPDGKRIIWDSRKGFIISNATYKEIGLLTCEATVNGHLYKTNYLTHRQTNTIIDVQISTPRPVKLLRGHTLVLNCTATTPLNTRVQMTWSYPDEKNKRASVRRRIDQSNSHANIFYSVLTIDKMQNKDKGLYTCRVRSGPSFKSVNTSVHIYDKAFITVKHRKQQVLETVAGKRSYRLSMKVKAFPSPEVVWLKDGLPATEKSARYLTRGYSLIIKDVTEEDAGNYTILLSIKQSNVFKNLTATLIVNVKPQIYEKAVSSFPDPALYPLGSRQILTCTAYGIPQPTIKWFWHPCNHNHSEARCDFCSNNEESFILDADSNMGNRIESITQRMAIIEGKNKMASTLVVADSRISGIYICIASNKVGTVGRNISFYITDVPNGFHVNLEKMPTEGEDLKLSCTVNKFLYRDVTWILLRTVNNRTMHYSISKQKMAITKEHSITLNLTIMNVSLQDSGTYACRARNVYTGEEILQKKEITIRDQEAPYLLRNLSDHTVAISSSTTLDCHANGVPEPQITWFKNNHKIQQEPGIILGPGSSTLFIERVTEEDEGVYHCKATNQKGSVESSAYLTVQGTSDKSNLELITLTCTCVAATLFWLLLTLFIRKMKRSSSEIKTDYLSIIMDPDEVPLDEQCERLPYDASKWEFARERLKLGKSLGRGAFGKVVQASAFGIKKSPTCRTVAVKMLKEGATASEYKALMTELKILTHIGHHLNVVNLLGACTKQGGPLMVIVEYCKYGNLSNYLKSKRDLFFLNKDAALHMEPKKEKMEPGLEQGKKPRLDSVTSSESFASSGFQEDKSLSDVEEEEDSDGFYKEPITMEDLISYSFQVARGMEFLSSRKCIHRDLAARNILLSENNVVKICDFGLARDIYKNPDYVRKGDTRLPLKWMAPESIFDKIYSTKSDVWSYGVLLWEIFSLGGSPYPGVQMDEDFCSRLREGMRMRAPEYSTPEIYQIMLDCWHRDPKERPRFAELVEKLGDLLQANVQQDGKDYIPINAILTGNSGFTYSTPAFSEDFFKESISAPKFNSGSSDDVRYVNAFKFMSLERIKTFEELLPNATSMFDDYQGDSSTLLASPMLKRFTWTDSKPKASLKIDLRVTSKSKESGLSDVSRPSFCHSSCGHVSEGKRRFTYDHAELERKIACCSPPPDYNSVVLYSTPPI
# Method in brief: as §1
# OSR1 = target: T19, OSR1 (Homo sapiens, UniProt O95747); conditions: OSR1, 1 uM
# T19 construct: purchased Ambit KINOMEscan (DiscoverX)
# T19 sequence (O95747 whole entry): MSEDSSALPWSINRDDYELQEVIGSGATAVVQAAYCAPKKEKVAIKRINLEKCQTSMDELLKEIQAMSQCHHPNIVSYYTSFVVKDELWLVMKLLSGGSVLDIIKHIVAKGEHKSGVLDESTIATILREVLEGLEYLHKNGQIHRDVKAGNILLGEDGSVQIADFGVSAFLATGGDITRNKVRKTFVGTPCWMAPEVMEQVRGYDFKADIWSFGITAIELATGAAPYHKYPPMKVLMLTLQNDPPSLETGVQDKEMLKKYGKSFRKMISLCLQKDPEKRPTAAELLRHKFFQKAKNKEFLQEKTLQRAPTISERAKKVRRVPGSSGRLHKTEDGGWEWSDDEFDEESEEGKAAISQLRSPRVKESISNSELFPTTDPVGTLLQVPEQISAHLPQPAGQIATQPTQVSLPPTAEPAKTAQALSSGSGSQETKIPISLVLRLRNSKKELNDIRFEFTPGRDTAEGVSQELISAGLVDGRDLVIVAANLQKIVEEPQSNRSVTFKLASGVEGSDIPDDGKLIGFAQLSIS
# Method in brief: as §1
# EPHB4 = target: T20, EPHB4 (Homo sapiens, UniProt P54760); conditions: EPHB4, 1 uM
# T20 construct: purchased Ambit KINOMEscan (DiscoverX)
# Method in brief: as §1
# SYK = target: T21, SYK (Homo sapiens, UniProt P43405); conditions: for % binding compared to no inhibitor control: 1 uM
# T21 construct: purchased Ambit KINOMEscan (DiscoverX)
# Method in brief: as §1
# CAMK1G = target: T22, CAMK1G (Homo sapiens, UniProt Q96NX5); conditions: 1 uM
# T22 construct: purchased Ambit KINOMEscan (DiscoverX)
# Method in brief: as §1
# GCN2(Kin.Dom.2,S808G) = target: T23, GCN2(Kin.Dom.2,S808G) (Homo sapiens, UniProt Q9P2K8, S808G); conditions: 1 uM
# T23 construct: GCN2(Kin.Dom.2,S808G); purchased Ambit KINOMEscan (DiscoverX)
# Method in brief: as §1
# PIK3CG = target: T24, PIK3CG (Homo sapiens, UniProt P48736); conditions: 1 uM
# T24 construct: purchased Ambit KINOMEscan (DiscoverX)
# Method in brief: as §1
# PAK7 = target: T25, PAK7 (Homo sapiens, UniProt Q9P286); conditions: PAK7, 1 uM
# T25 construct: purchased Ambit KINOMEscan (DiscoverX)
# Method in brief: as §1
# FES = target: T26, FES (Homo sapiens, UniProt P07332); conditions: 1 uM
# T26 construct: purchased Ambit KINOMEscan (DiscoverX)
# Method in brief: as §1
# BMX = target: T27, BMX (Homo sapiens, UniProt P51813); conditions: 1 uM
# T27 construct: purchased Ambit KINOMEscan (DiscoverX)
# Method in brief: as §1
# DAPK1 = target: T28, DAPK1 (Homo sapiens, UniProt P53355); conditions: DAPK1, 1 uM
# T28 construct: purchased Ambit KINOMEscan (DiscoverX)
# Method in brief: as §1
# CLK3 = target: T29, CLK3 (Homo sapiens, UniProt P49761); conditions: CLK3, 1 uM
# T29 construct: purchased Ambit KINOMEscan (DiscoverX)
# Method in brief: as §1
# CLK4 = target: T30, CLK4 (Homo sapiens, UniProt Q9HAZ1); conditions: CLK4, 1 uM
# T30 construct: purchased Ambit KINOMEscan (DiscoverX)
# Method in brief: as §1
# SBK1 = target: T31, SBK1 (Homo sapiens, UniProt Q52WX2); conditions: SBK1, 1 uM
# T31 construct: purchased Ambit KINOMEscan (DiscoverX)
# Method in brief: as §1
# SRPK1 = target: T32, SRPK1 (Homo sapiens, UniProt Q96SB4); conditions: SRPK1, 1 uM
# T32 construct: purchased Ambit KINOMEscan (DiscoverX)
# T32 sequence (Q96SB4 whole entry): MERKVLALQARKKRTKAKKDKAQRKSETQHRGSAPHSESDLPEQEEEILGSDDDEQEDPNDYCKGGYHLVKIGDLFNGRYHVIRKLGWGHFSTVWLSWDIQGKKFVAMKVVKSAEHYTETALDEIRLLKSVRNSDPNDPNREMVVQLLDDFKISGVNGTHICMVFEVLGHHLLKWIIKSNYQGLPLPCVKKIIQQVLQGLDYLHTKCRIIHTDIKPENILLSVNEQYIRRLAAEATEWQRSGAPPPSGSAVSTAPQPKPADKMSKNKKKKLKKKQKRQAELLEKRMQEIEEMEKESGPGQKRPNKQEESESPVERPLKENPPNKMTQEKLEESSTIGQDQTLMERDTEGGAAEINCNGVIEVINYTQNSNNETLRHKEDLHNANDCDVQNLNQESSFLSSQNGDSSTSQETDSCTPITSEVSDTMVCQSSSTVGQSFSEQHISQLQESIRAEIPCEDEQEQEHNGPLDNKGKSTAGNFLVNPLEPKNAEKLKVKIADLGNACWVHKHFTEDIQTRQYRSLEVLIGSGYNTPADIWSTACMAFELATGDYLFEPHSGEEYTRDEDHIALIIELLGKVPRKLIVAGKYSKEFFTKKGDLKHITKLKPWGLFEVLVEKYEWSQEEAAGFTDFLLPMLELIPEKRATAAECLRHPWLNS
# Method in brief: as §1
# TAOK1 = target: T33, TAOK1 (Homo sapiens, UniProt Q7L7X3); conditions: TAOK1, 1 uM
# T33 construct: purchased Ambit KINOMEscan (DiscoverX)
# Method in brief: as §1
# ACVR2A = target: T34, ACVR2A (Homo sapiens, UniProt P27037); conditions: 1 uM
# T34 construct: purchased Ambit KINOMEscan (DiscoverX)
# Method in brief: as §1
# PDGFRA = target: T35, PDGFRA (Homo sapiens, UniProt P16234); conditions: 1 uM
# T35 construct: purchased Ambit KINOMEscan (DiscoverX)
# T35 sequence (P16234 24-1089): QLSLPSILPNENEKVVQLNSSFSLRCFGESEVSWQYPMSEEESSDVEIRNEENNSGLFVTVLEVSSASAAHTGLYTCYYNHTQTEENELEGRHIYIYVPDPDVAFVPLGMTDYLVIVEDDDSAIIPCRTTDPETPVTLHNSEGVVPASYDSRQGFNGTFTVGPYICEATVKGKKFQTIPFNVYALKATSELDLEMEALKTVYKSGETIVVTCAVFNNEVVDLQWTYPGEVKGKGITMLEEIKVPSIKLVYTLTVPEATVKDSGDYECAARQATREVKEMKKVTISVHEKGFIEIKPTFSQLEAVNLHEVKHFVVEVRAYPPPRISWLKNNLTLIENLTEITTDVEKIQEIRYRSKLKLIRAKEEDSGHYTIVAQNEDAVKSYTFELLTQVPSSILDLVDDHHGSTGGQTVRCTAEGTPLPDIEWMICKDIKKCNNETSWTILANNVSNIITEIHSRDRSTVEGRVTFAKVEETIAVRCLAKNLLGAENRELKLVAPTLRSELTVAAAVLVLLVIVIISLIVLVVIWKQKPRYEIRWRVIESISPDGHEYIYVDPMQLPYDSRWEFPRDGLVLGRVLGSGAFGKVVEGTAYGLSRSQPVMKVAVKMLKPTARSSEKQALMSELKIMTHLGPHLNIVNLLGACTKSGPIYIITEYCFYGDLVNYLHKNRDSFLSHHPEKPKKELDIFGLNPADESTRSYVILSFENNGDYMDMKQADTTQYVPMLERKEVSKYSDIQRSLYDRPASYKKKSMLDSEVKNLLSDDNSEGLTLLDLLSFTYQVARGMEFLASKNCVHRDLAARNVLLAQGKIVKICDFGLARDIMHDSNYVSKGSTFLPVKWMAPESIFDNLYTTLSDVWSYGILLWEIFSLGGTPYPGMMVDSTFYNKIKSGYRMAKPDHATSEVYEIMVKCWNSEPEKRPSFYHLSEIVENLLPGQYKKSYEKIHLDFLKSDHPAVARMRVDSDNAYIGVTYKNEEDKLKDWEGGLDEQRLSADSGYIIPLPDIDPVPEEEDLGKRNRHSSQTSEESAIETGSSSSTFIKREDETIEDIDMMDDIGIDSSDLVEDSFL
# Method in brief: as §1
# AURKB = target: T36, AURKB (Homo sapiens, UniProt Q96GD4); conditions: 1 uM
# T36 construct: purchased Ambit KINOMEscan (DiscoverX)
# Method in brief: as §1
# BMPR2 = target: T37, BMPR2 (Homo sapiens, UniProt Q13873); conditions: BMPR2, 1 uM
# T37 construct: purchased Ambit KINOMEscan (DiscoverX)
# Method in brief: as §1
# FYN = target: T38, FYN (Homo sapiens, UniProt P06241); conditions: 1 uM
# T38 construct: purchased Ambit KINOMEscan (DiscoverX)
# Method in brief: as §1
# MYLK2 = target: T39, MYLK2 (Homo sapiens, UniProt Q9H1R3); conditions: MYLK2, 1 uM
# T39 construct: purchased Ambit KINOMEscan (DiscoverX)
# Method in brief: as §1
# ERK4 = target: T40, ERK4 (Homo sapiens, UniProt P31152); conditions: ERK4, 1 uM
# T40 construct: purchased Ambit KINOMEscan (DiscoverX)
# T40 sequence (P31152 whole entry): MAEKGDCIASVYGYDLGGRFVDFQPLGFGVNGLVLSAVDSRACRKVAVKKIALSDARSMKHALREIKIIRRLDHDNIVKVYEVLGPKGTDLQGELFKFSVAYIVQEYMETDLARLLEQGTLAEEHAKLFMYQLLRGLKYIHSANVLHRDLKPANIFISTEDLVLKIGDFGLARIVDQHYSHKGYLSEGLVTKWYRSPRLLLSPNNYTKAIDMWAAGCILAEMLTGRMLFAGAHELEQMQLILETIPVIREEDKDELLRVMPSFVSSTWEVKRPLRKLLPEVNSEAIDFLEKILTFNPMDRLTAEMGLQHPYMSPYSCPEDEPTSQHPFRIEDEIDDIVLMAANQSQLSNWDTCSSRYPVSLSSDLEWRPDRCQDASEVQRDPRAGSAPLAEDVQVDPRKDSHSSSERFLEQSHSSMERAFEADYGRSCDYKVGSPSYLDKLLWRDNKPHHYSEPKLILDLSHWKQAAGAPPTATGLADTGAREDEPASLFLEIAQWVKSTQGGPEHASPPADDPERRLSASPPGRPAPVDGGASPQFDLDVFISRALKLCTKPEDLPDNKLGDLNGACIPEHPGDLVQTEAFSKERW
# Method in brief: as §1
smiles,measurement,setting,value
"COc1ccc(-c2cc3nccn3c(Nc3ncccc3C(N)=O)n2)cc1OC.Cl.Cl [BAY61-3606, 2-[7-(3,4-dimethoxyphenyl)-imidazo [1,2-c]pyrimidin-5-ylamino] nicotinamide dihydrochloride, reference compound]",% binding compared to no inhibitor control,EPHB3,98%
same,% binding compared to no inhibitor control,PIP5K2B,100%
same,% binding compared to no inhibitor control,ERN1,72%
same,% binding compared to no inhibitor control,MARK1,100%
same,% binding compared to no inhibitor control,SIK,80%
same,% binding compared to no inhibitor control,PIP5K1A,64%
same,% binding compared to no inhibitor control,PCTK3,92%
same,% binding compared to no inhibitor control,ADCK4,9.9%
same,% binding compared to no inhibitor control,AMPK-alpha1,92%
same,% binding compared to no inhibitor control,PIM2,87%
same,% binding compared to no inhibitor control,TGFBR2,31%
same,% binding compared to no inhibitor control,FGFR4,100%
same,% binding compared to no inhibitor control,FER,69%
same,% binding compared to no inhibitor control,HIPK4,29%
same,% binding compared to no inhibitor control,JNK2,100%
same,% binding compared to no inhibitor control,FLT3(D835H),7.9%
same,% binding compared to no inhibitor control,RIPK4,19%
same,% binding compared to no inhibitor control,FLT1,100%
same,% binding compared to no inhibitor control,OSR1,100%
same,% binding compared to no inhibitor control,EPHB4,86%
same,% binding compared to no inhibitor control,SYK,6.1%
same,% inhibition ATP binding,"SYK; KINOMEscan, 1 μM",93.9%
same,% binding compared to no inhibitor control,CAMK1G,82%
same,% binding compared to no inhibitor control,"GCN2(Kin.Dom.2,S808G)",54%
same,% binding compared to no inhibitor control,PIK3CG,26%
same,% binding compared to no inhibitor control,PAK7,72%
same,% binding compared to no inhibitor control,FES,88%
same,% binding compared to no inhibitor control,BMX,95%
same,% binding compared to no inhibitor control,DAPK1,66%
same,% binding compared to no inhibitor control,CLK3,100%
same,% binding compared to no inhibitor control,CLK4,11%
same,% binding compared to no inhibitor control,SBK1,96%
same,% binding compared to no inhibitor control,SRPK1,88%
same,% binding compared to no inhibitor control,TAOK1,95%
same,% binding compared to no inhibitor control,ACVR2A,100%
same,% binding compared to no inhibitor control,PDGFRA,67%
same,% binding compared to no inhibitor control,AURKB,69%
same,% binding compared to no inhibitor control,BMPR2,46%
same,% binding compared to no inhibitor control,FYN,100%
same,% binding compared to no inhibitor control,MYLK2,86%
same,% binding compared to no inhibitor control,ERK4,87%
COc1ccccc1Nc1nc(-c2ccc(OC)c(OC)c2)cc2nccn12 [BAY derivative 6],% binding compared to no inhibitor control,EPHB3,84%
same,% binding compared to no inhibitor control,PIP5K2B,100%
same,% binding compared to no inhibitor control,ERN1,100%
same,% binding compared to no inhibitor control,MARK1,100%
same,% binding compared to no inhibitor control,SIK,100%
same,% binding compared to no inhibitor control,PIP5K1A,86%
same,% binding compared to no inhibitor control,PCTK3,100%
same,% binding compared to no inhibitor control,ADCK4,69%
same,% binding compared to no inhibitor control,AMPK-alpha1,100%
same,% binding compared to no inhibitor control,PIM2,91%
same,% binding compared to no inhibitor control,TGFBR2,100%
same,% binding compared to no inhibitor control,FGFR4,100%
same,% binding compared to no inhibitor control,FER,100%
same,% binding compared to no inhibitor control,HIPK4,98%
same,% binding compared to no inhibitor control,JNK2,100%
same,% binding compared to no inhibitor control,FLT3(D835H),42%
same,% binding compared to no inhibitor control,RIPK4,93%
same,% binding compared to no inhibitor control,FLT1,100%
same,% binding compared to no inhibitor control,OSR1,100%
same,% binding compared to no inhibitor control,EPHB4,97%
same,% binding compared to no inhibitor control,SYK,48%
same,% binding compared to no inhibitor control,CAMK1G,98%
same,% binding compared to no inhibitor control,"GCN2(Kin.Dom.2,S808G)",99%
same,% binding compared to no inhibitor control,PIK3CG,100%
same,% binding compared to no inhibitor control,PAK7,98%
same,% binding compared to no inhibitor control,FES,100%
same,% binding compared to no inhibitor control,BMX,95%
same,% binding compared to no inhibitor control,DAPK1,76%
same,% binding compared to no inhibitor control,CLK3,100%
same,% binding compared to no inhibitor control,CLK4,100%
same,% binding compared to no inhibitor control,SBK1,100%
same,% binding compared to no inhibitor control,SRPK1,75%
same,% binding compared to no inhibitor control,TAOK1,100%
same,% binding compared to no inhibitor control,ACVR2A,100%
same,% binding compared to no inhibitor control,PDGFRA,100%
same,% binding compared to no inhibitor control,AURKB,68%
same,% binding compared to no inhibitor control,BMPR2,87%
same,% binding compared to no inhibitor control,FYN,61%
same,% binding compared to no inhibitor control,MYLK2,89%
same,% binding compared to no inhibitor control,ERK4,100%
